Measured values: patent publication US11866516B2, “Isolated peptide, anti-cancer medicinal composition including the same and method of specifically reducing or inhibiting activities of cancer cells using the same” (National Sun Yat-Sen Univesity, priority 2020, dated 2024)
No end group written: not given here.

Tests used:
recombinant ATG4A = target: T1, recombinant ATG4A (Homo sapiens, UniProt Q8WYN0); assay: ATG4 reporter GBRL2-PLA2 assay with recombinant ATG4A; assay type: biochemical; details: for inhibitory effect on ATG4A proteolytic activity: recombinant ATG4A 5 nM, 100 nM GBRL2-PLA2, EDTA as positive control
T1 sequence (Q8WYN0 1-398): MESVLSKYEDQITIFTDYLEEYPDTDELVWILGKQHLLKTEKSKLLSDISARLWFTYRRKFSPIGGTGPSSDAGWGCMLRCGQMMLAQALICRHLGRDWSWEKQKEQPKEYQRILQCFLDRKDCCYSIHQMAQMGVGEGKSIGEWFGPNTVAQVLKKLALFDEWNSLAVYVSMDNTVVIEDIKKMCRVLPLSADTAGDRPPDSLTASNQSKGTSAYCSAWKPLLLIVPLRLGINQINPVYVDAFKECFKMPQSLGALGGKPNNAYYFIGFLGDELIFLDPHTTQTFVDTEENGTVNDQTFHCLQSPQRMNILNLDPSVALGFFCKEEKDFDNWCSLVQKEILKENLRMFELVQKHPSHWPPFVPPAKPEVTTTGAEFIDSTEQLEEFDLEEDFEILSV
Description: (§1) FIGS. 2A to 2C illustrate the inhibitory effects of GBRL2-derived peptides on ATG4 proteolytic activity according to several embodiments of the present invention. FIGS. 2A and 2B illustrate three α-helical peptides (H1, H2 and H3) derived from GBRL2, which were 2-fold serial titrated and mixed with recombinant ATG4A (5 nM) (FIG. 2A) or recombinant ATG4B (0.1 nM) (FIG. 2B) in the presence of 100 nM reporter GBRL2-PLA2, a general substrate for ATG4 members, to evaluate the inhibitory effect of peptides on ATG4A and ATG4B. The IC50 of peptides on ATG4B and ATG4A was analyzed by Prism 5.0. FIG. 2C illustrates the inhibitory activity of EDTA on proteolysis of ATG4 as a positive control in the upper panel. In the lower panel of FIG. 2C, the H2 peptide was further counter assayed with 0.5 nM caspase-3 and 100 μM DEVD-AFC to validate its specificity.
(§2) The reporter assay was modified from a previous report. Briefly, recombinant ATG4A or ATG4B was mixed with 100 nM GBRL2-PLA2 fusion protein in 20 μL PLA2 reaction buffer containing 20 mM Tris-HCl, pH 8.0, 2 mM CaCl2) and 1 mM DTT, and 20 μM 2-(6-(7-nitrobenz-2-oxa-1,3-diazol-4-yl)amino)hexanoyl-1-hexadecanoyl-sn-glycero-3-phosphocholine (NBD-C6-HPC) (Invitrogen, N-3786). Fluorescence intensity was measured within 30-60 minutes using Fluoroskan Ascent FL Reader (Thermo Fisher Scientific) at room temperature with excitation and emission wavelength of 485 nm and 530 nm, respectively. The IC50 of peptides on GBRL2-PLA2 was determined using nonlinear regression fitting of a series of progress curves.

ATG4B [1] = target: T2, ATG4B (Homo sapiens, UniProt Q9Y4P1); assay: ATG4 reporter GBRL2-PLA2 assay with recombinant ATG4B; assay type: biochemical; details: for inhibitory effect on ATG4B proteolytic activity: recombinant ATG4B 0.1 nM, 100 nM GBRL2-PLA2, EDTA as positive control
T2 sequence (Q9Y4P1 1-393): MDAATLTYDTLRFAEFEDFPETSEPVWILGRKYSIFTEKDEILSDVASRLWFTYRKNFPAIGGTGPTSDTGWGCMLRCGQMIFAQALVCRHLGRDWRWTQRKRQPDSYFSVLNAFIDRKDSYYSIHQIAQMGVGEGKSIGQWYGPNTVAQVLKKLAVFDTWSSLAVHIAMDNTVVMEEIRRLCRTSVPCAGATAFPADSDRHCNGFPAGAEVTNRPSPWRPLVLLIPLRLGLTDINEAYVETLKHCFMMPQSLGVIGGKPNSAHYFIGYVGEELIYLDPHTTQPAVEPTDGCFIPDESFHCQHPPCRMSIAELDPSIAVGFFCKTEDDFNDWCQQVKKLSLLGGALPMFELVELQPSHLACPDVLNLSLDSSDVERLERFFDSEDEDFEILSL
Description: as §1, §2

[2] = system: colorectal cancer HCT116 cells; assay: cell migration assay, HCT116 cells; assay type: cell-based, human; details: TAT-GBRL2 at higher dose (20 μM), data not shown
Description: (§3) Besides the role of ATG4 in cancer cell survival, ATG4 plays a crucial role in cancer metastasis. Human glioblastoma H4 cells and colorectal cancer HCT116 cells were treated with the peptides for the cell migration assay.

H4 cells [3] = assay: cell viability, H4 cells; assay type: cell-based, human; details: data not shown
Description: (§4) Since ATG4 might be required for cancer cell viability and metastatic characteristics, such as migration and invasion, the H4 cells and HCT116 cells were treated with peptides to determine the short- and long-term effects of peptide on cancer cells (FIGS. 4A to 4B).

H4 cells [4] = assay: propidium iodide (PI) uptake, H4 cells; assay type: cell-based, human; details: data not shown
Description: as §4

HCT116 cells [5] = assay: propidium iodide (PI) uptake, HCT116 cells; assay type: cell-based, human; details: data not shown
Description: as §4

[6] = system: human glioblastoma H4 cells; assay: cell migration assay, H4 cells; assay type: cell-based; details: TAT-GBRL2 at higher dose (20 μM), data not shown
Description: as §3

HCT116 cells [7] = assay: cell viability, HCT116 cells; assay type: cell-based, human; details: data not shown
Description: as §4

ATG4B [8] = target: T2, ATG4B; assay: ATG4B cleavage of chimeric GBRL2 substrate (N-terminal C-myc tag, C-terminal S-tag); assay type: biochemical
Source text: FIGS. 3A to 3C illustrate the effects of peptides on cellular ATG4 proteolysis and autophagic flux according to several embodiments of the present invention. FIG. 3A depicts H2 peptides derived from different ATG4 substrates, including MAP1LC3B, MAP1LC3C and GBR, GBRL2 were mixed with chimeric GBRL2 containing N-terminal C-myc tag and C-terminal S-tag. The S-tag GBRL2 in the upper panel and ratios of non-cleaved/cleaved Myc-tag GBRL2 in the lower panel are used to evaluate the inhibitory effects of the H2 peptides. FIG. 3B depicts human glioblastoma H4 cells and colorectal cancer HCT116 cells both treated with 10 μM GBRL2 H2 peptide alone (orange) or TAT peptide alone (red) or GBRL2 H2 peptide conjugated with TAT peptide (green) for 6 hours and analyzed with flow cytometer. […] The luciferase activity is measured to determine the inhibitory effects on cellular ATG4 proteolysis.
Further, H2 helical peptides from different ATG4 substrates were tested for ATG4B activity with GABARAL2 chimeric substrates, which contained N-terminal C-myc tag and C-terminal S-tag (FIG. 3A). Compared to the controls, the remaining S-tag and the ratio of full length C-myc tagged GBRL2/cleaved C-myc tagged GBRL2 levels were quantified to determine the inhibitory effects of peptides on ATG4B proteolytic activity toward GBRL2. […]

HCT116 cells [9] = assay: clonogenic assay, HCT116 cells; assay type: cell-based, human; details: peptide 5 μM, long-term treatment
Description: (§5) FIGS. 4A and 4B depict the cytotoxic effects of peptide (5 μM) in H4 cells (FIG. 4A) and HCT116 cells (FIG. 4B) further confirmed by clonogenic assay according to several embodiments of the present invention.
as §4

H4 cells [10] = assay: clonogenic assay, H4 cells; assay type: cell-based, human; details: peptide 5 μM, long-term treatment
Description: as §5, §4

caspase-3 = target: T3, caspase-3 (Homo sapiens, UniProt P42574); assay: caspase-3 counter assay with DEVD-AFC; assay type: biochemical; details: 0.5 nM caspase-3, 100 μM DEVD-AFC
T3 sequence (P42574 29-175 limits assumed): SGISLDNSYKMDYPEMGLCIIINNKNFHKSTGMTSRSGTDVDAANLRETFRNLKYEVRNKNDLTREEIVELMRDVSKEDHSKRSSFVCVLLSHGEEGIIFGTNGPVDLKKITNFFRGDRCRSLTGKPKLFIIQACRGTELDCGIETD
T3 sequence (P42574 176-277 limits assumed): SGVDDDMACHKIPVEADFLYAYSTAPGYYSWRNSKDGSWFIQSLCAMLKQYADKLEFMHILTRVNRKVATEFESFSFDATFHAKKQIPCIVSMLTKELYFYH
Description: as §1

cellular ATG4 = assay: ATG4 cleavable luciferase assay in cells; assay type: cell-based, human; details: HCT116 cells expressing ATG4 cleavable luciferase, 6 hours, ATG4B silencer as positive control
Source text: FIGS. 3A to 3C illustrate the effects of peptides on cellular ATG4 proteolysis and autophagic flux according to several embodiments of the present invention. FIG. 3A depicts H2 peptides derived from different ATG4 substrates, including MAP1LC3B, MAP1LC3C and GBR, GBRL2 were mixed with chimeric GBRL2 containing N-terminal C-myc tag and C-terminal S-tag. The S-tag GBRL2 in the upper panel and ratios of non-cleaved/cleaved Myc-tag GBRL2 in the lower panel are used to evaluate the inhibitory effects of the H2 peptides. FIG. 3B depicts human glioblastoma H4 cells and colorectal cancer HCT116 cells both treated with 10 μM GBRL2 H2 peptide alone (orange) or TAT peptide alone (red) or GBRL2 H2 peptide conjugated with TAT peptide (green) for 6 hours and analyzed with flow cytometer. FIG. 3C depicts the HCT116 cells expressing ATG4 cleavable luciferase treated with GBRL2 H2 peptide for 6 hours. The luciferase activity is measured to determine the inhibitory effects on cellular ATG4 proteolysis.
The plasmid MAP1LC3 wt-Luc or MAP1LC3 G120A-Luc (as a normalization control) was transfected into HEK293T (2000 cells/40 μL) seeded in 384-well white plates for overnight. The cells were treated with ATG4 inhibitors for 8 hours or 16 hours, followed by adding 200 μM D-luciferin (Promega) into each well to monitor the luciferase activity to reflect ATG4 activity in cells. […]

HCT116 cells [11] = assay: invasion through Matrigel-coated Transwell filters; assay type: cell-based, human
Source text: FIGS. 5A to 5B illustrate the effects of GBRL2 peptides on cancer cell migration and invasion according to several embodiments of the present invention. FIG. 5A depicts the invasion of HCT116 cells examined with Matrigel-coated Transwell filters in the presence or absence of peptides, and the cell invasion results are quantified with ImageJ software. FIG. 5B depicts the quantified results for invasion expressed as the mean±SEM. *p<0.05; **p<0.01.
as §3

inhibitory effect on ATG4A proteolytic activity (recombinant ATG4A)	inhibitory effect on ATG4B proteolytic activity (ATG4B [1])	relative strength of inhibition on ATG4B among H2 peptides (ATG4B [8]; compared with H2 peptides of other ATG4 substrates)	IC50 on ATG4A, rank among H1, H2, H3 (recombinant ATG4A; GBRL2-PLA2 reporter assay)	IC50 on ATG4B, rank among H1, H2, H3 (ATG4B [1]; GBRL2-PLA2 reporter assay)	effect on activity of caspase-3 (caspase-3)	Substance	cell migration [2]	cell viability (H4 cells [3])	PI positive proportion (H4 cells [4])	PI positive proportion (HCT116 cells [5])	cell migration [6]	cell viability (HCT116 cells [7])	inhibition of ATG4B cleavage activity toward GBRL2 (ATG4B [8]; remaining S-tag and ratio full length/cleaved C-myc tagged GBRL2)	colony formation (HCT116 cells [9])	colony formation (H4 cells [10])	cellular luciferase activity (cellular ATG4 proteolysis) (cellular ATG4)	invaded HCT116 cells (HCT116 cells [11])
showed inhibitory effects	showed inhibitory effects	–	–	–	–	H1: α-helical peptide derived from GBRL2, LEHRCVESAKIRAK, SEQ ID NO:11 (Ac-LEHRCVESAKIRAK-NH2)	–	–	–	–	–	–	–	–	–	–	–
showed inhibitory effects	showed inhibitory effects	–	–	–	–	H3: α-helical peptide derived from GBRL2, MGQLYEKE, SEQ ID NO:12 (Ac-MGQLYEKE-NH2)	–	–	–	–	–	–	–	–	–	–	–
–	–	–	–	–	–	TAT: Tat penetration domain, HIV-1 TAT basic domain, YGRKKRRQRRR, SEQ ID NO:2; control peptide (Ac-YGRKKRRQRRR-NH2) [reference compound]	not altered	no or little effects	no effects on PI uptake	no effects on PI uptake	not altered	no or little effects	–	–	–	–	–
showed inhibitory effects	showed inhibitory effects	strongest inhibition	lowest IC50	lowest IC50	no effects	α-helix 2 peptide derived from GBRL2 (GABARAPL2), VAQFMWIIRKR, SEQ ID NO:1 (VAQFMWIIRKR-NH2; not fully specified (N-terminus))	not altered	no or little effects	slightly increased PI positive cells	slightly increased PI positive cells	not altered	no or little effects	inhibited ATG4B cleavage activity in dose dependent manner	reduced colony formation	reduced colony formation	elevated cellular luciferase activity	significantly decreased the invaded HCT116 cells
